Biological target: T1, MdtM (Escherichia coli, UniProt P39386)
T1 construct: full ORF in modified pBAD/Myc-His A, decaHis tag removed with thrombin; expressed in E. coli LMG194; IMAC with ATP wash to remove chaperonin, SEC in DDM; ~45 kDa; monomer
Assay: intrinsic tryptophan fluorescence quenching
Format: binding

T1 sequence (P39386 whole entry): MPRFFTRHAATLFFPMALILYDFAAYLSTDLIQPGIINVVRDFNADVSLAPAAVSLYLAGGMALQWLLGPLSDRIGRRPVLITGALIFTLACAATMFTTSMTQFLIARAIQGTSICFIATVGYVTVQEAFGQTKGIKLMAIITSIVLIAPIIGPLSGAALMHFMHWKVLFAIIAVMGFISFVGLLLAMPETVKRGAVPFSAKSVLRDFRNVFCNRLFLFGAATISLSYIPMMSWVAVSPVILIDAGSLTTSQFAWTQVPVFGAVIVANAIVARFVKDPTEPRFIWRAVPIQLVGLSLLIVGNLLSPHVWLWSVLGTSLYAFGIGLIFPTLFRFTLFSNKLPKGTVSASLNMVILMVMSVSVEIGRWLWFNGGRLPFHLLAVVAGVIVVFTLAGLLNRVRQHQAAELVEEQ

## O=C(N[C@H](CO)[C@H](O)c1ccc([N+](=O)[O-])cc1)C(Cl)Cl [chloramphenicol]
  Kd: 0.036 ± 0.003 µM

Source: paper PMC4790320, “Purification of a Multidrug Resistance Transporter for Crystallization Studies” (Antibiotics, 2015)
